Literature values, collected in patent publication US20180271827A1, “CANNABINOID COMPOSITIONS AND METHODS OF MAKING” (Pasenture, Inc., priority 2015, published 2018).
“Also recorded” adds a separate entry of the source.

Conditions: Table A, representative terpenes; properties or predicted properties

Structure (SMILES) | Properties
CC12CCC(CC1)C(C)(C)O2 [1,8-cineole (eucalyptol), 1,8-cineole] | AChE inhibitor, Increases cerebral, blood flow,; also recorded: Stimulant, Antibiotic, Antiviral, Antiinflammatory,; also recorded: Antinociceptive
CC1=CCC2CC1C2(C)C (stereo not drawn) [a-pinene] | Antiinflammatory, Bronchodilator, Stimulant,; also recorded: Antibiotic, Antineoplastic, AChE inhibitor
CC1=CC[C@@H](C(C)(C)O)CC1 [a-terpineol] | Sedative, Antibiotic, AChE inhibitor, Antioxidant,; also recorded: Antimalarial
C=C(C)[C@H]1CC=C(C)CC1 [d-limonene] | Antidepressant, Antimutagenic
C=CC(C)(O)CCC=C(C)C (stereo not drawn) [linalool] | Sedative, Antidepressant, Anxiolytic, Immune; also recorded: potentiator
Cc1ccc(C(C)C)cc1 [p-cymene] | Antibiotic, Anticandidal, AChE inhibitor
CC(C)=C1CC[C@@H](C)CC1=O [pulegone] | Antipyretic
CC1=CCC(O)(C(C)C)CC1 (stereo not drawn) [terpineol-4-ol] | AChE inhibitor, Antibiotic
C=C1CC/C=C(/C)CC[C@@H]2[C@@H]1CC2(C)C [ß-caryophyllene] | Antiinflammatory, Cytoprotective (gastric mucosa),; also recorded: Antimalarial
C=CC(=C)CCC=C(C)C [ß-myrcene] | Analgesic. Antiinflammatory, Antibiotic,; also recorded: Antimutagenic

Same assay, conditions: Table B, representative cannabinoids; properties or predicted properties

Structure (SMILES) | Properties
CCCCCc1cc(O)c2c(c1)OC(C)(C)[C@@H]1CCC(C)=C[C@@H]21 [9-tetrahydrocannabinol (THC), 9-tetrahydrocannabinol, reference compound] | Euphoriant, Analgesic,; also recorded: Antiinflammatory, Antioxidant,; also recorded: Antiemetic
CCCCCc1cc(O)c2c(c1)OC(C)(C)[C@@H]1CC=C(C)C[C@@H]21 [?-8-tetrahydrocannabinol (?-8-THC), ?-8-tetrahydrocannabinol] | Resembles ?-9-THC, Less psychoactive,; also recorded: More stable Antiemetic
CCCCCc1cc(O)c2c(c1)OC(C)(C)c1ccc(C)cc1-2 [Cannabinol (CBN), Cannabinol] | Oxidation, breakdown, product,; also recorded: Sedative, Antibiotic
CCCCCc1cc(O)c2c(c1)OC(C)(CCC=C(C)C)C=C2 (stereo not drawn) [cannabichromene (CBC), cannabichromene] | Antiinflammatory, Antibiotic,; also recorded: Antifungal
C=C(C)[C@@H]1CCC(C)=C[C@H]1c1c(O)cc(CCCCC)cc1O [cannabidiol (CBD), cannabidiol, reference compound] | Antispasmodic; also recorded: Anxiolytic, Analgesic, Antipsychotic,; also recorded: Antiinflammatory, Antioxidant,
CCCCCc1cc(O)c(C/C=C(\C)CCC=C(C)C)c(O)c1 [cannabigerol (CBG), cannabigerol] | Antiinflammatory, Antibiotic,; also recorded: Antifungal
CCCc1cc(O)c2c(c1)OC(C)(C)[C@@H]1CCC(C)=C[C@@H]21 [tetrahydrocannabivarin (THCV), tetrahydrocannabivarin] | Analgesic, Euphoriant

Same assay, conditions: Table C, flavonoid and phytosterol components derived from cannabis plants; properties or predicted properties

Structure (SMILES) | Properties
O=c1cc(-c2ccc(O)cc2)oc2cc(O)cc(O)c12 [apigenin] | Anxiolytic, Antiinflammatory, Estrogenic
COc1cc(-c2cc(=O)c3c(O)c(C/C=C(\C)CCC=C(C)C)c(O)cc3o2)ccc1O [cannflavin A] | COX inhibitor, LO inhibitor
O=c1c(O)c(-c2ccc(O)c(O)c2)oc2cc(O)cc(O)c12 [quercetin] | Antioxidant, Antimutagenic, Antiviral,; also recorded: Antineoplastic
CC[C@H](CC[C@@H](C)[C@H]1CC[C@H]2[C@@H]3CC=C4C[C@@H](O)CC[C@]4(C)[C@H]3CC[C@]12C)C(C)C [ß-sitosterol] | Antiinflammatory, 5-a-reductase, inhibitor
